Our source for the mutagenic call values is PubChem BioAssay AID1259407 (Chemical Carcinogenesis Research Information System (CCRIS), 2018).

Activity calls are given as the source filed them. No rule for the calls is given here.

The test system of this data set is CCRIS mutagenicity, Ames/micronucleus/aberration tests. Put plainly: CCRIS mutagenicity studies.
Where [1] appears, read: Test System: AMES SALMONELLA TYPHIMURIUM, Strain/Indicator: TA98, Metabolic Activation: NONE, Method: STANDARD PLATE.
Setting [2] is: Test System: AMES SALMONELLA TYPHIMURIUM, Strain/Indicator: TA98, Metabolic Activation: RAT, LIVER, S-9, AROCLOR 1254, Method: STANDARD PLATE.
Where [3] appears, read: Test System: AMES SALMONELLA TYPHIMURIUM, Strain/Indicator: TA100, Metabolic Activation: NONE, Method: STANDARD PLATE.
Where [4] appears, read: Test System: AMES SALMONELLA TYPHIMURIUM, Strain/Indicator: TA100, Metabolic Activation: RAT, LIVER, S-9, AROCLOR 1254, Method: STANDARD PLATE.
The mark [5] stands for this setting: Test System: AMES SALMONELLA TYPHIMURIUM, Strain/Indicator: TA1535, Metabolic Activation: NONE, Method: STANDARD PLATE.
Setting [6] is: Test System: AMES SALMONELLA TYPHIMURIUM, Strain/Indicator: TA1535, Metabolic Activation: RAT, LIVER, S-9, AROCLOR 1254, Method: STANDARD PLATE.
Setting [7] is: Test System: AMES SALMONELLA TYPHIMURIUM, Strain/Indicator: TA1537, Metabolic Activation: NONE, Method: STANDARD PLATE.
[8] abbreviates: Test System: AMES SALMONELLA TYPHIMURIUM, Strain/Indicator: TA1537, Metabolic Activation: RAT, LIVER, S-9, AROCLOR 1254, Method: STANDARD PLATE.
[9] abbreviates: Test System: AMES SALMONELLA TYPHIMURIUM, Strain/Indicator: TA1538, Metabolic Activation: NONE, Method: STANDARD PLATE.
[10] abbreviates: Test System: AMES SALMONELLA TYPHIMURIUM, Strain/Indicator: TA1538, Metabolic Activation: RAT, LIVER, S-9, AROCLOR 1254, Method: STANDARD PLATE.

For the compound `CC(=O)C1(c2ccccc2)CCNCC1`, the mutagenic call is, setting by setting: (Test System: AMES SALMONELLA TYPHIMURIUM, Strain/Indicator: TA98, Metabolic Activation: HAMSTER, LIVER, S-9, AROCLOR 1254, Method: STANDARD PLATE) “inactive; negative”; under setting [1], “inactive; negative”; under setting [2], “inactive; negative”; (Test System: AMES SALMONELLA TYPHIMURIUM, Strain/Indicator: TA100, Metabolic Activation: HAMSTER, LIVER, S-9, AROCLOR 1254, Method: STANDARD PLATE) “inactive; negative”; under setting [3], “inactive; negative”; under setting [4], “inactive; negative”. For the same compound, the mutagenic call is, setting by setting: (Test System: AMES SALMONELLA TYPHIMURIUM, Strain/Indicator: TA1535, Metabolic Activation: HAMSTER, LIVER, S-9, AROCLOR 1254, Method: STANDARD PLATE) “inactive; negative”; under setting [5], “inactive; negative”; under setting [6], “inactive; negative”; (Test System: AMES SALMONELLA TYPHIMURIUM, Strain/Indicator: TA1537, Metabolic Activation: HAMSTER, LIVER, S-9, AROCLOR 1254, Method: STANDARD PLATE) “inactive; negative”; under setting [7], “inactive; negative”; under setting [8], “inactive; negative”. Moreover, the mutagenic call by setting is: (Test System: AMES SALMONELLA TYPHIMURIUM, Strain/Indicator: TA1538, Metabolic Activation: HAMSTER, LIVER, S-9, AROCLOR 1254, Method: STANDARD PLATE) “inactive; negative”; under setting [9], “inactive; negative”; under setting [10], “inactive; negative”; (Test System: MOUSE LYMPHOMA, Strain/Indicator: L5178Y (TK+/TK-), Metabolic Activation: NONE, Method: SUSPENSION/PLATE) “inactive; negative. reevaluation of results: negative”; (Test System: MOUSE LYMPHOMA, Strain/Indicator: L5178Y (TK+/TK-), Metabolic Activation: RAT, LIVER, S-9, AROCLOR 1254, Method: SUSPENSION/PLATE) “inactive; negative. reevaluation of results: inconclusive”.

As for `C=C(C)C(=O)OCCCCC`, the mutagenic call was “inactive; negative” under setting [1]; “inactive; negative” under setting [2]; “inactive; negative” (Test System: AMES SALMONELLA TYPHIMURIUM, Strain/Indicator: TA98, Metabolic Activation: RAT, LIVER, S-9, SODIUM PHENOBARBITAL, Method: STANDARD PLATE); “inactive; negative” under setting [3]; “inactive; negative” under setting [4]; “inactive; negative” (Test System: AMES SALMONELLA TYPHIMURIUM, Strain/Indicator: TA100, Metabolic Activation: RAT, LIVER, S-9, SODIUM PHENOBARBITAL, Method: STANDARD PLATE). The mutagenic call is “inactive; negative” under setting [5]; “inactive; negative” under setting [6]; “inactive; negative” (Test System: AMES SALMONELLA TYPHIMURIUM, Strain/Indicator: TA1535, Metabolic Activation: RAT, LIVER, S-9, SODIUM PHENOBARBITAL, Method: STANDARD PLATE); “inactive; negative” under setting [7]; “inactive; negative” under setting [8]; “inactive; negative” (Test System: AMES SALMONELLA TYPHIMURIUM, Strain/Indicator: TA1537, Metabolic Activation: RAT, LIVER, S-9, SODIUM PHENOBARBITAL, Method: STANDARD PLATE). Also, the mutagenic call was “inactive; negative” under setting [9]; “inactive; negative” under setting [10]; “inactive; negative” (Test System: AMES SALMONELLA TYPHIMURIUM, Strain/Indicator: TA1538, Metabolic Activation: RAT, LIVER, S-9, SODIUM PHENOBARBITAL, Method: STANDARD PLATE).

In the case of `O=C/C(Cl)=C(/Cl)C(=O)O`, the mutagenic call under setting [5] is “active; positive” and the mutagenic call (Test System: CHINESE HAMSTER OVARY, Strain/Indicator: CHO-KTL3 (HPRT)/6-THIOGUANINE, Metabolic Activation: NONE) was “active; positive”.

As to `CN=[N+](C)[O-]`, the mutagenic call (Test System: AMES SALMONELLA TYPHIMURIUM, Strain/Indicator: TA100, Metabolic Activation: RAT, LIVER, S-9, KC500 OR PHENOBARBITAL, Method: LIQUID SUSPENSION) is “active; positive”; the mutagenic call (Test System: AMES SALMONELLA TYPHIMURIUM, Strain/Indicator: TA1535, Metabolic Activation: HAMSTER, LIVER, S-9, AROCLOR 1254, Method: PREINCUBATION) was “inactive; negative”; the mutagenic call (Test System: AMES SALMONELLA TYPHIMURIUM, Strain/Indicator: TA1535, Metabolic Activation: NONE, Method: PREINCUBATION) is “inactive; negative”; the mutagenic call under setting [5] was “inactive; negative”; the mutagenic call (Test System: AMES SALMONELLA TYPHIMURIUM, Strain/Indicator: TA1535, Metabolic Activation: RAT, LIVER, S-9, AROCLOR 1254, Method: PREINCUBATION) is “inactive; negative”; the mutagenic call (Test System: AMES SALMONELLA TYPHIMURIUM, Strain/Indicator: TA1535, Metabolic Activation: RAT, LIVER, S-9, KC500 OR PHENOBARBITAL, Method: LIQUID SUSPENSION) was “active; positive”. Besides, the mutagenic call (Test System: AMES SALMONELLA TYPHIMURIUM, Strain/Indicator: YG7108, Metabolic Activation: NONE, Method: STANDARD PLATE) was “active; positive”; the mutagenic call (Test System: E. COLI, Strain/Indicator: WP2 UVRA, Metabolic Activation: HAMSTER, LIVER, S-9, AROCLOR 1254, Method: PREINCUBATION) is “inactive; negative”; the mutagenic call (Test System: E. COLI, Strain/Indicator: WP2 UVRA, Metabolic Activation: HAMSTER, LIVER, S-9, Method: PREINCUBATION) is “inactive; negative”; the mutagenic call (Test System: E. COLI, Strain/Indicator: WP2 UVRA, Metabolic Activation: MOUSE, LIVER, S-9, AROCLOR 1254, Method: PREINCUBATION) was “inactive; negative”; the mutagenic call (Test System: E. COLI, Strain/Indicator: WP2 UVRA, Metabolic Activation: MOUSE, LIVER, S-9, Method: PREINCUBATION) is “inactive; negative”; the mutagenic call (Test System: E. COLI, Strain/Indicator: WP2 UVRA, Metabolic Activation: NONE, Method: PREINCUBATION) was “inactive; negative”. The mutagenic call is, setting by setting: (Test System: E. COLI, Strain/Indicator: WP2 UVRA, Metabolic Activation: RAT, LIVER, S-9, AROCLOR 1254, Method: PREINCUBATION) “inactive; negative”; (Test System: E. COLI, Strain/Indicator: WP2 UVRA, Metabolic Activation: RAT, LIVER, S-9, Method: PREINCUBATION) “inactive; negative”.

As to `O=C1C=Cc2c(ccc3ccccc23)C1=O`, the mutagenic call runs as follows: (Test System: AMES SALMONELLA TYPHIMURIUM, Strain/Indicator: TA97A, Metabolic Activation: NONE, Method: PREINCUBATION) “inactive; negative”; (Test System: AMES SALMONELLA TYPHIMURIUM, Strain/Indicator: TA98, Metabolic Activation: NONE, Method: PREINCUBATION) “inactive; negative”; (Test System: AMES SALMONELLA TYPHIMURIUM, Strain/Indicator: TA100, Metabolic Activation: NONE, Method: PREINCUBATION) “inactive; negative”; (Test System: AMES SALMONELLA TYPHIMURIUM, Strain/Indicator: TA102, Metabolic Activation: NONE, Method: PREINCUBATION) “inactive; negative”; (Test System: AMES SALMONELLA TYPHIMURIUM, Strain/Indicator: TA104, Metabolic Activation: NONE, Method: PREINCUBATION) “active; positive”.

`Nc1ccc(/C=C/c2ccc(Cl)cc2)cc1`: the mutagenic call (Test System: AMES SALMONELLA TYPHIMURIUM, Strain/Indicator: TA98(1,8-DNP6), Metabolic Activation: NONE, Method: STANDARD PLATE) is “inactive; negative”; the mutagenic call (Test System: AMES SALMONELLA TYPHIMURIUM, Strain/Indicator: TA98(1,8-DNP6), Metabolic Activation: S-9, Method: STANDARD PLATE) was “active; positive”; the mutagenic call under setting [1] is “inactive; negative”; the mutagenic call under setting [2] was “active; positive”; the mutagenic call (Test System: AMES SALMONELLA TYPHIMURIUM, Strain/Indicator: TA98, Metabolic Activation: S-9, Method: STANDARD PLATE) was “active; positive”; the mutagenic call under setting [3] is “inactive; negative”. Besides, the mutagenic call is, setting by setting: under setting [4], “active; positive”; (Test System: AMES SALMONELLA TYPHIMURIUM, Strain/Indicator: TA100, Metabolic Activation: S-9, Method: STANDARD PLATE) “active; positive”.

For the compound `c1ccc2c(OC[C@H]3CO3)cccc2c1`, the mutagenic call under setting [3] is “active; positive”.
